According to US4710500A, “1-(4'-fluorophenyl)-3,5-substituted indoles useful in the treatment of psychic disorders and pharmaceutical compositions thereof” (H. Lundbeck A/S, priority 1985, dated 1987):
Structures can show the parent of a compound that is named as a salt. Where two headings read alike, the source gives them in different places.

What was measured:
[1] = molecular target: T1, serotomin2 (5-HT2) receptors (Rattus norvegicus, UniProt P14842); assay: 3H-spiroperidol binding, 5-HT2 receptors in rat cortical membranes; details: in vitro, read-out: 3H-Spiroperidol bindings 5-HT2 receptors IC50
T1 construct: 5-HT2 receptors in rat cortical membranes; from tissue; host or cells: rat cortical membranes
Protocol: (§1) 4. ^3 H-spiroperidol bindings
The affinity of compounds to dopamine (DA) D-2 receptors and serotomin2 (5-HT2) receptors was determined by in vitro receptor binding technique. Binding of ^3 H-spiroperidol to DA D-2 receptors in rat striatal membranes and to 5-HT2 receptors in rat cortical membranes was determined as described in detail by Arnt et al. (1984).
(§2) Arnt, J., J. Hyttel and J.-J. Larsen: Acta pharmacol. et toxicol. 55, 363-372, 1984.

5-HT2 receptor = molecular target: T2, 5-HT2 receptor (Rattus norvegicus, UniProt P14842); assay: Quipazine inhibition (head twitches); type: in vivo; details: sc 2 hours before quipazine 15 umol/kg sc
T2 construct: from tissue; host or cells: living rats (in vivo), CNS
Protocol: Quipazine and a number of other compounds, which increase 5-HT2 receptor activity in the CNS, induce a characteristic rapid shake (twitch) of the head. This response is inhibited by 5-HT2 receptor antagonists (Vetulani et al. 1980, Arnt et al. 1984).
The test compound or saline is injected subcutaneously 2 hours before subcutaneous injection of quipazine hemimalecate (15umol/kg). At least 3 dose groups, each consisting of at least 4 rats, are used. The rats are individually placed in observation cages (12×25 cm) and the number of head twitches are counted 30-40 min after quipazine administration. Inhibition of head twitches is expressed in per cent of the number of head twitches in the control group. ED 50 values are calculated by log-probit analysis.
Vetulani, J., B.B. Beduarczyk, K. Reichenberg and A. Rokost: Neuropharmacology 19, 155-158, […].
as §2

[2] = system: methylphenidate-induced gnawing; assay: Methylphenidate antagonism; type: in vivo, mice; details: for MePh Antg. ED50 (sc): *ED50 from sc administration
[3] = molecular target: T3, dopamine (DA) D-2 receptors (Rattus norvegicus, UniProt P61169); assay: 3H-spiroperidol binding, dopamine D-2 receptors in rat striatal membranes
T3 construct: DA D-2 receptors in rat striatal membranes; from tissue; host or cells: rat striatal membranes
Protocol: as §1
The affinity of compounds to dopamine (DA) D-2 receptors and serotomin2 (5-HT2) receptors was determined by in vitro receptor binding technique.
Arnt, J., J. Hyttel and J.-J. Larsen: Acta pharmacol. et toxicol.

Catalepsy = type: in vivo, rat; details: for ED50: Rattus norvegicus, sc
[4] = mice, methylphenidate s.c. 60 mg/kg
[5] = *ED50 from sc administration, rat

T3 sequence (P61169 whole entry): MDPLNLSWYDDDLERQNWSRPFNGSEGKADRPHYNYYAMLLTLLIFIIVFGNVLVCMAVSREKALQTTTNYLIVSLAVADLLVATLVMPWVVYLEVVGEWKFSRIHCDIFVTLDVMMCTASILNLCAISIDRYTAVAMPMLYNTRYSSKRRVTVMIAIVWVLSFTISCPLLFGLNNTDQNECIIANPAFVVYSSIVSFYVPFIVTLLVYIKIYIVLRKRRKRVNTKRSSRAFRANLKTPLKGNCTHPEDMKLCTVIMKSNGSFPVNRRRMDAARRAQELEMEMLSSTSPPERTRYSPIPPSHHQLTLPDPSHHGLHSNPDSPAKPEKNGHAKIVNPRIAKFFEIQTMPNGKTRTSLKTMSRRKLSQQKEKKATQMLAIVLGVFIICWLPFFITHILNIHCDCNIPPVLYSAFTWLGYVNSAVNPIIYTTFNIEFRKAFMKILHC
T2 sequence (P14842 whole entry): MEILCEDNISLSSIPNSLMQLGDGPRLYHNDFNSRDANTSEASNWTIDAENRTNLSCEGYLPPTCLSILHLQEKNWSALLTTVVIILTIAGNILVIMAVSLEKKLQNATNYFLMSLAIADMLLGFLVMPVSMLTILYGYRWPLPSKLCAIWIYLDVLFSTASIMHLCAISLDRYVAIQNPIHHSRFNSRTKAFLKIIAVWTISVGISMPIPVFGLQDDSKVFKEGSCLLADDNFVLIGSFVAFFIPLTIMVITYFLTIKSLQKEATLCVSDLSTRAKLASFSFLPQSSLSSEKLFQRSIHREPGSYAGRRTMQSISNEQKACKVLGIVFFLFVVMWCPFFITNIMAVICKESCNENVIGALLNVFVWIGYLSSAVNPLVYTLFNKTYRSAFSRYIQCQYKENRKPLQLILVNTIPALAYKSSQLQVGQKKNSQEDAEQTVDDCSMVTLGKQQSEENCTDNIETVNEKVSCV
T1 sequence (P14842 whole entry): as above

O=C1NCCN1CCN1CCC(c2cn(-c3ccc(F)cc3)c3ccccc23)CC1 [Lu 23-086, 1-(4'-Fluorophenyl)-3-(1-(2--imidazolidinon-1-ylethyl)-4-piperidyl)-1H-indole]
IC50 [1]: 0.0029 µM | Qvipaz. inh. ED50(sc) (5-HT2 receptor): 0.036 µmol/kg | MePh Antg. ED50 (sc) [2, 4]: > 98 µmol/kg | IC50 ([3]; rat striatal membranes, in vitro, read-out: 3H-Spiroperidol bindings DA-2 receptors IC50): 0.042 µM

O=C1OCCN1CCN1CC=C(c2cn(-c3ccc(F)cc3)c3ccc([N+](=O)[O-])cc23)CC1 [Lu 23-134, 1-(4'-Fluorophenyl)-5-nitro-3-(1-(2-oxazolidinon-3-ylethyl)-1,2,36-tetrahydropyridin-4-yl)-1H-indole, maleate]
IC50 [1]: 0.015 µM | Catalep. ED50(po) 1-6 h (Catalepsy; po, rat): 1.1 µmol/kg | Catalep. ED50(po) 24 h (Catalepsy; po, rat, 24 h): > 8.8 µmol/kg | MePh Antg. ED50 (sc) [2, 4]: 9.0 µmol/kg | IC50 [3]: 0.0028 µM

O=C1NCCN1CCN1CC=C(c2cn(-c3ccc(F)cc3)c3ccc([N+](=O)[O-])cc23)CC1 [Lu 23-142, 1-(4'-Fluorophenyl)-3-(1-(2-imidazolidinon-1-ylethyl)-1,2,3,6-tetrahydropridin-4-yl)-5-nitro-1H-indole]
IC50 [1]: 0.0067 µM | MePh Antg. ED50 (sc) [2, 4]: 2.6 µmol/kg

O=[N+]([O-])c1ccc2c(c1)c(C1=CCN(CCO)CC1)cn2-c1ccc(F)cc1 [Lu 23-150, 1-(4'-fluoropheynl)-3-(1-(2-hydroxyethyl)-1,2,3,6-tetrahydropyridin-4-yl)-5-nitro-1H-indole]
IC50 [1]: 0.01 µM | Catalep. ED50(po) 1-6 h (Catalepsy; po, rat): 0.21 µmol/kg | MePh Antg. ED50 (sc) [2, 4]: 0.07 µmol/kg | IC50 [3]: 0.0047 µM

OCCN1CC=C(c2cn(-c3ccc(F)cc3)c3ccc(C(F)(F)F)cc23)CC1 [Lu 23-156, 1-(4'-Fluorophenyl)-3-(1-(2-hydroxyethyl)-1,2,3,6-tetrahydropyridin-4-yl) -5-trifluoromethyl-1H-indole]
IC50 [1]: 0.015 µM | Qvipaz. inh. ED50(sc) (5-HT2 receptor): 0.03 µmol/kg | ED50 (Catalepsy; 24 h, read-out: Catalep. ED50 (sc) 24 h): 1.1 µmol/kg | ED50 (Catalepsy; read-out: Catalep. ED50 (sc) 1-6 h): < 0.19 µmol/kg | ED50 ([2]; Mus musculus, sc, read-out: MePh Antg. ED50 (sc)): 0.07 µmol/kg | IC50 [3]: 0.019 µM

OCCN1CC=C(c2cn(-c3ccc(F)cc3)c3ccc(F)cc23)CC1 [Lu 23-160, 5-fluoro-1-(4'-flurophenyl)-3-(1-(2-hydroxyethyl)-1,2,3,6-tetrahydropyridin-4-yl)-1H-indole, oxalate]
IC50 [1]: 0.034 µM | Catalep. ED50 (sc) 24 h (Catalepsy; *ED50 from sc administration, rat, 24 h): 5.2 µmol/kg | MePh Antg. ED50 (sc) [2, 4]: 3.4 µmol/kg | IC50 [3]: 0.011 µM

Cc1nccn1CCN1CC=C(c2cn(-c3ccc(F)cc3)c3ccc(C(F)(F)F)cc23)CC1 [Lu 23-173, 1-(4'-Fluorophenyl)-3-(1-(2-methyl-1-imidazole-2-ethyl)-1,2,3,6-tetrahydropyridin-4-yl)-5-trifluoromethyl-1H-indole, difumarate]
IC50 [1]: 0.06 µM | Qvipaz. inh. ED50(sc) (5-HT2 receptor): > 7.1 µmol/kg | Catalep. ED50 (sc) 1-6 h (Catalepsy; [5]): 1.8 µmol/kg | MePh Antg. ED50 (sc) [2, 4]: 0.77 µmol/kg | IC50 [3]: 0.042 µM

OCCCN1CC=C(c2cn(-c3ccc(F)cc3)c3ccc(F)cc23)CC1 [Lu 23-175, 5-Fluor-1-(4'-fluorophenyl)-3-(1-(3-hydroxypropyl)-1,2,3,6-tetrahydropyridin-4-yl)-1H-indole, oxalate]
IC50 [1]: 0.0067 µM | Catalep. ED50 (sc) 1-6 h (Catalepsy; [5]): 0.68 µmol/kg | MePh Antg. ED50 (sc) [2, 4]: 0.32 µmol/kg | IC50 [3]: 0.011 µM

CN1CC=C(c2cn(-c3ccsc3)c3ccc(Cl)cc23)CC1.O=C(O)/C=C\C(=O)O [Lu 24-001, 5-Chloro-3-(1-methyl-1,2,3,6-tetrahydropyridin-4-yl)-1-(3-thienyl)-1H-indole, maleate]
IC50 [1]: 0.0088 µM | Qvipaz. inh. ED50(sc) (5-HT2 receptor): 0.19 µmol/kg | MePh Antg. ED50(ip) ([2]; i.p. test substance, mice, methylphenidate s.c. 60 mg/kg): 2.6 µmol/kg

CN1CC=C(c2cn(-c3ccccc3F)c3ccc([N+](=O)[O-])cc23)CC1 [Lu 24-003, 1-(2'-Fluorophenyl)-5-nitro-3-(1-methyl-1,2,3,6-tetrahydropyridin-4-yl)-1H-indole, maleat]
IC50 [1]: 0.014 µM | MePh Antg. ED50 (sc) [2, 4]: 0.09 µmol/kg | IC50 [3]: 0.006 µM
